{"source": "PubChem BioAssay AID1259410", "about": "(Chemical Carcinogenesis Research Information System (CCRIS), 2018)", "origin": "cited, not measured here", "system": "rodent tumor promotion studies, tumor incidence", "assay": "CCRIS tumor promotion studies", "text": "The CCRIS database contains chemical records with carcinogenicity, mutagenicity, tumor promotion, and tumor inhibition test results. It was developed by the National Cancer Institute (NCI). Data are derived from studies cited in primary journals, current awareness tools, NCI reports, and other sources. Test results have been reviewed by experts in carcinogenesis and mutagenesis.\nCCRIS provides historical information from the years 1985 - 2011. It is no longer updated.\nThis is an archive assay for CCRIS tumor promotion studies.", "data": [{"smiles": "O=C(O)c1cc(=O)[nH]c(=O)[nH]1", "values": [{"measurement": "outcome", "setting": "Carcinogen: 1,2-DIMETHYLHYDRAZINE DIHYDROCHLORIDE, 306-37-6, Doses [Carcinogen]: 100 MG/KG ONCE 18 HR AFTER 2/3 PARTIAL HEPATECTOMY, Doses [Promoter]: 0, 1% IN DIET FOR 10 WK BEGINNING 1 WK POST CARCINOGEN DOSE (STUDY DURATION: 54 WK), Route [Carcinogen]: INTRAPERITONEAL, Route [Promoter]: ORAL, Species: RAT, Strain/Sex: F344/MALE", "result": "liver: hepatocellular carcinoma"}, {"measurement": "outcome", "setting": "Carcinogen: 1,2-DIMETHYLHYDRAZINE DIHYDROCHLORIDE, 306-37-6, Doses [Carcinogen]: 100 MG/KG ONCE 18 HR AFTER 2/3 PARTIAL HEPATECTOMY, Doses [Promoter]: 0, 1% IN DIET FOR 20 WK BEGINNING 1 WK POST CARCINOGEN DOSE (STUDY DURATION: 54 WK), Route [Carcinogen]: INTRAPERITONEAL, Route [Promoter]: ORAL, Species: RAT, Strain/Sex: F344/MALE", "result": "liver: hepatocellular carcinoma"}, {"measurement": "outcome", "setting": "Carcinogen: 1,2-DIMETHYLHYDRAZINE DIHYDROCHLORIDE, 306-37-6, Doses [Carcinogen]: 100 MG/KG ONCE 18 HR AFTER 2/3 PARTIAL HEPATECTOMY, Doses [Promoter]: 0, 1% IN DIET FOR 29 WK BEGINNING 1 WK POST CARCINOGEN DOSE (STUDY DURATION: 54 WK), Route [Carcinogen]: INTRAPERITONEAL, Route [Promoter]: ORAL, Species: RAT, Strain/Sex: F344/MALE", "result": "liver: hepatocellular carcinoma"}, {"measurement": "outcome", "setting": "Carcinogen: 1,2-DIMETHYLHYDRAZINE DIHYDROCHLORIDE, 306-37-6, Doses [Carcinogen]: 100 MG/KG ONCE 18 HR AFTER 2/3 PARTIAL HEPATECTOMY, Doses [Promoter]: 0, 1% IN DIET FOR 40 WK BEGINNING 1 WK POST CARCINOGEN DOSE (STUDY DURATION: 54 WK), Route [Carcinogen]: INTRAPERITONEAL, Route [Promoter]: ORAL, Species: RAT, Strain/Sex: F344/MALE", "result": "liver: hepatocellular carcinoma"}, {"measurement": "outcome", "setting": "Carcinogen: 1,2-DIMETHYLHYDRAZINE DIHYDROCHLORIDE, Doses [Carcinogen]: 100 MG/KG ONCE, 18 HR AFTER PARTIAL HEPATECTOMY, Doses [Promoter]: 1% IN DIET FOR 10 OR 13 MO BEGINNING 1 WK AFTER INITIATION, Route [Carcinogen]: INTRAPERITONEAL, Route [Promoter]: ORAL, Species: RAT, Strain/Sex: F344/MALE", "result": "liver: hepatocellular carcinoma"}, {"measurement": "outcome", "setting": "Carcinogen: 1,2-DIMETHYLHYDRAZINE, 540-73-8, Doses [Carcinogen]: 100 MG/KG ONCE 18 HR AFTER TWO-THIRDS PARTIAL HEPATECTOMY, Doses [Promoter]: 0, 1% IN DIET BEGINNING 1 WK POST CARCINOGEN DOSE (STUDY DURATION: 54 WK), Route [Carcinogen]: INTRAPERITONEAL, Route [Promoter]: ORAL, Species: RAT, Strain/Sex: F344/MALE", "result": "liver: hepatocellular carcinoma"}, {"measurement": "outcome", "setting": "Carcinogen: DIETHYLNITROSAMINE, 55-18-5, Doses [Carcinogen]: 200 MG/KG BW ONCE, Doses [Promoter]: 0, 1% IN DIET FOR 4 WK BEGINNING 1 WK POST CARCINOGEN DOSE, PARTIAL HEPATECTOMY PERFORMED AT END OF SECOND WK (STUDY DUR, Route [Carcinogen]: INTRAPERITONEAL, Route [Promoter]: ORAL, Species: RAT, Strain/Sex: F344/MALE", "result": "liver: carcinoma"}, {"measurement": "outcome", "setting": "Carcinogen: DIETHYLNITROSAMINE, 55-18-5, Doses [Carcinogen]: 200 MG/KG ONCE, Doses [Promoter]: 0, 1% IN DIET BEGINNING 1 WK POST CARCINOGEN DOSE (STUDY DURATION: 60 WK), Route [Carcinogen]: INTRAPERITONEAL, Route [Promoter]: ORAL, Species: RAT, Strain/Sex: F344/MALE", "result": "liver: hepatocellular carcinoma"}, {"measurement": "outcome", "setting": "Carcinogen: DIETHYLNITROSAMINE, 55-18-5, Doses [Carcinogen]: 200 MG/KG ONCE, Doses [Promoter]: 0, 1% IN DIET BEGINNING 5 WK POST CARCINOGEN DOSE (STUDY DURATION: 60 WK), Route [Carcinogen]: INTRAPERITONEAL, Route [Promoter]: ORAL, Species: RAT, Strain/Sex: F344/MALE", "result": "liver: hepatocellular carcinoma"}, {"measurement": "outcome", "setting": "Carcinogen: N-NITROSO(2-HYDROXYPROPYL)(2-OXOPROPYL)AMINE, 61499-28-3, Doses [Carcinogen]: 170 MG/KG (TOTAL DOSE) ADMINISTERED CONTINUOUSLY OVER 9 D VIA OSMOTIC PUMP, Doses [Promoter]: 0, 1% IN DIET BEGINNING 2 WK POST CARCINOGEN TREATMENT AND CONTINUING FOR DURATION OF STUDY (STUDY DURATION: 29 WK), Route [Carcinogen]: SUBCUTANEOUS IMPLANT, Route [Promoter]: ORAL, Species: HAMSTER, Strain/Sex: SYRIAN/FEMALE", "result": "pancreas: papillary adenocarcinoma, carcinoma in situ"}, {"measurement": "outcome", "setting": "Carcinogen: N-NITROSO(2-HYDROXYPROPYL)(2-OXOPROPYL)AMINE, 61499-28-3, Doses [Carcinogen]: 170 MG/KG (TOTAL DOSE) INFUSED CONTINUOUSLY FOR 9 D, Doses [Promoter]: 0, 1% IN DIET FOR DURATION OF STUDY BEGINNING 2 WK POST CARCINOGEN TREATMENT (STUDY DURATION: 28 WK), Route [Carcinogen]: SUBCUTANEOUS, Route [Promoter]: ORAL, Species: HAMSTER, Strain/Sex: SYRIAN/FEMALE", "result": "pancreas: carcinoma in situ, adenocarcinoma"}, {"measurement": "outcome", "setting": "Carcinogen: N-NITROSO(2-HYDROXYPROPYL)(2-OXOPROPYL)AMINE, 61499-28-3, Doses [Carcinogen]: 400 MG/KG (TOTAL DOSE) ADMINISTERED CONTINUOUSLY BY OSMOTIC PUMP FOR 14 D, Doses [Promoter]: 0, 1% IN DIET FOR 15 WK BEGINNING 2 WK PRIOR TO CARCINOGEN TREATMENT (STUDY DURATION: 29 WK), Route [Carcinogen]: SUBCUTANEOUS, Route [Promoter]: ORAL, Species: RAT, Strain/Sex: SPRAGUE-DAWLEY/MALE", "result": "kidney: tumor; lung: adenoma"}, {"measurement": "outcome", "setting": "Carcinogen: N-NITROSO(2-HYDROXYPROPYL)(2-OXOPROPYL)AMINE, 61499-28-3, Doses [Carcinogen]: 400 MG/KG VIA OSMOTIC PUMP CONTINUOUSLY FOR 14 D, Doses [Promoter]: 0, 1% IN DIET 2 WK PRIOR TO AND 13 WK POST CARCINOGEN TREATMENT (STUDY DURATION: 27 WK), Route [Carcinogen]: SUBCUTANEOUS, Route [Promoter]: ORAL, Species: RAT, Strain/Sex: CD-1/MALE", "result": "kidney: tumor; lung: adenoma"}]}, {"smiles": "Oc1ccc(I)cc1", "values": [{"measurement": "outcome", "setting": "Carcinogen: 7,12-DIMETHYLBENZ(A)ANTHRACENE, Doses [Carcinogen]: TOP, Route [Carcinogen]: DERMAL, Route [Promoter]: DERMAL, Species: MOUSE, Strain/Sex: FEMALE", "result": "integumentary system (skin)"}]}, {"smiles": "COc1c(N2C[C@@H]3CCCN[C@@H]3C2)c(F)cc2c(=O)c(C(=O)O)cn(C3CC3)c12", "values": [{"measurement": "outcome", "setting": "Carcinogen: N-METHYL-N-NITROSOUREA, 684-93-5, Doses [Carcinogen]: 4.5 MG/KG BW 1/WK FOR FIRST 10 WK, Doses [Promoter]: 0, 500 MG/KG BW/D FOR 24 WK BEGINNING 14 WK POST CARCINOGEN FIRST DOSE (STUDY DURATION: 38 WK), Route [Carcinogen]: GAVAGE, Route [Promoter]: GAVAGE, Species: RAT, Strain/Sex: WISTAR/MALE, FEMALE", "result": "forestomach: squamous cell papilloma, glandular stomach adenocarcinoma"}]}, {"smiles": "CC1(C)OC(=O)N(c2cc(Cl)cc(Cl)c2)C1=O", "values": [{"measurement": "outcome", "setting": "Carcinogen: 2-(ACETYLAMINO)FLUORINE, Doses [Carcinogen]: DIET, Doses [Promoter]: IN DIET, Route [Carcinogen]: ORAL, Route [Promoter]: ORAL, Species: RAT, Strain/Sex: MALE", "result": "liver"}]}, {"smiles": "CN(C)c1ncnc2nc[nH]c12", "values": [{"measurement": "outcome", "setting": "Carcinogen: DIETHYLNITROSAMINE, 55-18-5, 2-ACETYLAMINOFLUORENE, 53-96-3, CARBON TETRACHLORIDE, 56-23-5, Carcinogen: DIETHYLNITROSAMINE, 55-18-5, 2-ACETYLAMINOFLUORENE, 53-96-3, CARBON TETRACHLORIDE, 56-23-5, Doses [Carcinogen]: 200 MG/KG BW ONCE FOLLOWED 2 WK LATER BY 0.03% 2-ACETYLAMINOFLUORENE IN DIET FOR 2 WK PLUS 2 ML/KG CARBON TETRACHLORIDE, Doses [Promoter]: 0, 0.015% IN DIET FOR 21 WK BEGINNING AT END OF INITIATION PHASE (STUDY DURATION: 25 WK), Route [Carcinogen]: INTRAPERITONEAL, ORAL, Route [Carcinogen]: INTRAPERITONEAL, ORAL, Route [Promoter]: ORAL, Species: RAT, Strain/Sex: WISTAR/MALE", "result": "liver: hepatocellular carcinoma"}, {"measurement": "outcome", "setting": "Carcinogen: DIETHYLNITROSAMINE, 55-18-5, Doses [Carcinogen]: 200 MG/KG BW ONCE, Doses [Promoter]: 0, 0.005, 0.02% IN DIET FOR 23 WK BEGINNING 2 WK POST CARCINOGEN TREATMENT (STUDY DURATION: 25 WK), Doses [Promoter]: 0, 0.005, 0.02% IN DIET FOR 23 WK BEGINNING 2 WK POST CARCINOGEN TREATMENT (STUDY DURATION: 25 WK), Route [Carcinogen]: INTRAPERITONEAL, Route [Promoter]: ORAL, Species: RAT, Strain/Sex: WISTAR/MALE", "result": "liver: hepatocellular carcinoma"}]}, {"smiles": "Oc1ccccc1", "values": [{"measurement": "outcome", "setting": "Carcinogen: 7,12-DIMETHYLBENZ(A)ANTHRACENE, Doses [Carcinogen]: 75 UG, SINGLE DOSE, Doses [Promoter]: 0, 2.5 MG 2/WK FOR 42 WK, Route [Carcinogen]: DERMAL, Route [Promoter]: DERMAL, Species: MOUSE, Strain/Sex: FEMALE", "result": "integumentary system (skin): carcinoma"}]}]}
